Assay: xn = mol fraction of the nth substance listed
Details: 101 kPa, Liquid, Vibrating tube method

CN(CCO)CCO [N-methyldiethanolamine] + C[S+](C)[O-]
Details	mass density [kg/m3]
293.14 K, x1 = 0.5998	1053.8
293.15 K, x1 = 0.1002	1089.57
293.15 K, x1 = 0.2	1079.89
293.15 K, x1 = 0.3001	1071.58
293.15 K, x1 = 0.4001	1064.66
293.15 K, x1 = 0.5002	1058.74
293.15 K, x1 = 0.7002	1049.58
293.15 K, x1 = 0.7998	1046.1
293.15 K, x1 = 0.8998	1043.37
293.15 K, x1 = 1	1040.6
303.14 K, x1 = 0.4001	1056.1
303.14 K, x1 = 0.5998	1045.65
303.15 K, x1 = 0.1002	1080.03
303.15 K, x1 = 0.2	1070.75
303.15 K, x1 = 0.3001	1062.76
303.15 K, x1 = 0.5002	1050.39
303.15 K, x1 = 0.7002	1041.61
303.15 K, x1 = 0.7998	1038.28
303.15 K, x1 = 0.8998	1035.67
303.15 K, x1 = 1	1033.02
313.14 K, x1 = 0.4001	1047.54
313.14 K, x1 = 0.5998	1037.49
313.15 K, x1 = 0.1002	1070.49
313.15 K, x1 = 0.2	1061.61
313.15 K, x1 = 0.3001	1053.94
313.15 K, x1 = 0.5002	1042.06
313.15 K, x1 = 0.7002	1033.61
313.15 K, x1 = 0.7998	1030.42
313.15 K, x1 = 0.8998	1027.95
313.15 K, x1 = 1	1025.4
323.14 K, x1 = 0.4001	1038.99
323.14 K, x1 = 0.5998	1029.33
323.15 K, x1 = 0.1002	1060.95
323.15 K, x1 = 0.2	1052.47
323.15 K, x1 = 0.3001	1045.11
323.15 K, x1 = 0.5002	1033.71
323.15 K, x1 = 0.7002	1025.6
323.15 K, x1 = 0.7998	1022.53
323.15 K, x1 = 0.8998	1020.18
323.15 K, x1 = 1	1017.74
333.14 K, x1 = 0.4001	1030.43
333.14 K, x1 = 0.5998	1021.15
333.15 K, x1 = 0.1002	1051.41
333.15 K, x1 = 0.2	1043.33
333.15 K, x1 = 0.3001	1036.29
333.15 K, x1 = 0.5002	1025.37
333.15 K, x1 = 0.7002	1017.56
333.15 K, x1 = 0.7998	1014.63
333.15 K, x1 = 0.8998	1012.37
333.15 K, x1 = 1	1010.03
343.14 K, x1 = 0.4001	1021.86
343.14 K, x1 = 0.5002	1017.01
343.14 K, x1 = 0.5998	1012.95
343.15 K, x1 = 0.1002	1041.86
343.15 K, x1 = 0.2	1034.18
343.15 K, x1 = 0.3001	1027.48
343.15 K, x1 = 0.7002	1009.51
343.15 K, x1 = 0.7998	1006.67
343.15 K, x1 = 0.8998	1004.51
343.15 K, x1 = 1	1002.25
353.14 K, x1 = 0.1002	1032.29
353.14 K, x1 = 0.4001	1013.27
353.14 K, x1 = 0.5002	1008.63
353.14 K, x1 = 0.5998	1004.72
353.14 K, x1 = 0.8998	996.587
353.14 K, x1 = 1	994.404
353.15 K, x1 = 0.2	1025.01
353.15 K, x1 = 0.7002	1001.4
353.16 K, x1 = 0.3001	1018.62
353.16 K, x1 = 0.7998	998.661
363.14 K, x1 = 0.1002	1022.7
363.14 K, x1 = 0.2	1015.82
363.14 K, x1 = 0.3001	1009.77
363.14 K, x1 = 0.5002	1000.22
363.14 K, x1 = 0.7002	993.263
363.14 K, x1 = 0.7998	990.621
363.14 K, x1 = 0.8998	988.594
363.15 K, x1 = 0.4001	1004.65
363.15 K, x1 = 0.5998	996.455
363.15 K, x1 = 1	986.471

OCCNCCO [diethanolamine] + C[S+](C)[O-]
Details	mass density [kg/m3]
293.14 K, x1 = 0.9002	1097.48
293.15 K, x1 = 0.1002	1098.86
293.15 K, x1 = 0.1999	1097.33
293.15 K, x1 = 0.2998	1096.58
293.15 K, x1 = 0.4001	1096.23
293.15 K, x1 = 0.5001	1096.24
293.15 K, x1 = 0.6	1096.29
293.15 K, x1 = 0.7002	1096.88
293.15 K, x1 = 0.8001	1097.24
293.15 K, x1 = 1	1097.61
303.14 K, x1 = 0.4001	1087.87
303.14 K, x1 = 0.9002	1090.69
303.15 K, x1 = 0.1002	1089.38
303.15 K, x1 = 0.1999	1088.26
303.15 K, x1 = 0.2998	1087.88
303.15 K, x1 = 0.5001	1088.23
303.15 K, x1 = 0.6	1088.59
303.15 K, x1 = 0.7002	1089.43
303.15 K, x1 = 0.8001	1090.11
303.15 K, x1 = 1	1091.17
313.14 K, x1 = 0.4001	1079.49
313.15 K, x1 = 0.1002	1079.89
313.15 K, x1 = 0.1999	1079.19
313.15 K, x1 = 0.2998	1079.18
313.15 K, x1 = 0.5001	1080.19
313.15 K, x1 = 0.6	1080.87
313.15 K, x1 = 0.7002	1081.97
313.15 K, x1 = 0.8001	1082.9
313.15 K, x1 = 0.9002	1083.77
313.15 K, x1 = 1	1084.6
323.14 K, x1 = 0.4001	1071.1
323.15 K, x1 = 0.1002	1070.39
323.15 K, x1 = 0.1999	1070.11
323.15 K, x1 = 0.2998	1070.46
323.15 K, x1 = 0.5001	1072.12
323.15 K, x1 = 0.6	1073.1
323.15 K, x1 = 0.7002	1074.48
323.15 K, x1 = 0.9002	1076.8
323.15 K, x1 = 1	1077.88
323.16 K, x1 = 0.8001	1075.68
333.14 K, x1 = 1	1071.11
333.15 K, x1 = 0.1002	1060.89
333.15 K, x1 = 0.1999	1061.01
333.15 K, x1 = 0.2998	1061.72
333.15 K, x1 = 0.4001	1062.67
333.15 K, x1 = 0.5001	1064.01
333.15 K, x1 = 0.6	1065.3
333.15 K, x1 = 0.7002	1066.94
333.15 K, x1 = 0.8001	1068.41
333.15 K, x1 = 0.9002	1069.78
343.14 K, x1 = 0.4001	1054.22
343.14 K, x1 = 0.9002	1062.69
343.14 K, x1 = 1	1064.25
343.15 K, x1 = 0.1002	1051.36
343.15 K, x1 = 0.1999	1051.9
343.15 K, x1 = 0.2998	1052.96
343.15 K, x1 = 0.5001	1055.86
343.15 K, x1 = 0.6	1057.43
343.15 K, x1 = 0.7002	1059.34
343.15 K, x1 = 0.8001	1061.08
353.14 K, x1 = 0.1999	1042.77
353.14 K, x1 = 0.5001	1047.65
353.14 K, x1 = 0.7002	1051.66
353.14 K, x1 = 0.9002	1055.5
353.14 K, x1 = 1	1057.31
353.15 K, x1 = 0.1002	1041.8
353.15 K, x1 = 0.2998	1044.16
353.15 K, x1 = 0.4001	1045.72
353.15 K, x1 = 0.6	1049.5
353.15 K, x1 = 0.8001	1053.64
363.14 K, x1 = 0.1002	1032.21
363.14 K, x1 = 0.1999	1033.59
363.14 K, x1 = 0.2998	1035.35
363.14 K, x1 = 0.6	1041.5
363.14 K, x1 = 0.7002	1043.89
363.14 K, x1 = 0.8001	1046.12
363.14 K, x1 = 0.9002	1048.21
363.15 K, x1 = 0.4001	1037.18
363.15 K, x1 = 0.5001	1039.38
363.15 K, x1 = 1	1050.24
